Reference: ChEMBL document CHEMBL1133163, “AMP deaminase inhibitors. 4. Further N3-substituted coformycin aglycon analogues: N3-alkylmalonates as ribose 5'-monophosphate mimetics” (J Med Chem, 2000)

Columns and labels:
AMP deaminase 3 = target: T1, AMP deaminase 3 (Homo sapiens, UniProt Q01432); assay: Inhibitory activity against porcine heart or recombinant human E-type AMPDA
T1 sequence (Q01432 whole entry): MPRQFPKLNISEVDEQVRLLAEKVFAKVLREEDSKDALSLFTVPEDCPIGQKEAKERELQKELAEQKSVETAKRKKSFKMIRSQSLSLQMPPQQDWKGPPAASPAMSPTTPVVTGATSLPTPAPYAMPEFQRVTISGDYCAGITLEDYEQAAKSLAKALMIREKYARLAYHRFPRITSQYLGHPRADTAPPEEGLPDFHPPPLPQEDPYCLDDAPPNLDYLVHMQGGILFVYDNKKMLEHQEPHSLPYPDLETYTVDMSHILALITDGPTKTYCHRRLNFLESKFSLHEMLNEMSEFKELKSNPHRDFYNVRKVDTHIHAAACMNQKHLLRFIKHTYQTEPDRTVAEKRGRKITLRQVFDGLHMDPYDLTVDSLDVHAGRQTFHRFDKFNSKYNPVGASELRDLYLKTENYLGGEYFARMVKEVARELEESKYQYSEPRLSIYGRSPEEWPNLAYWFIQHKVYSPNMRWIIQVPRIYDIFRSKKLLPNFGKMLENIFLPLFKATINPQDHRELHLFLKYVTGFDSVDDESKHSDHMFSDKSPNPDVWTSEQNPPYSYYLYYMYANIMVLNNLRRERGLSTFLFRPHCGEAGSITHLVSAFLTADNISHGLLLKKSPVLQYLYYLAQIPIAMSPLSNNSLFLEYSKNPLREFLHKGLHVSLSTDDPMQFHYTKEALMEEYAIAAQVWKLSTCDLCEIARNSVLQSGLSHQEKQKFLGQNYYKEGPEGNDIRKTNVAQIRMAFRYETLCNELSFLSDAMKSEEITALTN

Adenosine deaminase = target: T2, Adenosine deaminase (Bos taurus, UniProt P56658); assay: Inhibitory activity against calf intestinal Adenosine deaminase (ADA)
T2 sequence (P56658 whole entry): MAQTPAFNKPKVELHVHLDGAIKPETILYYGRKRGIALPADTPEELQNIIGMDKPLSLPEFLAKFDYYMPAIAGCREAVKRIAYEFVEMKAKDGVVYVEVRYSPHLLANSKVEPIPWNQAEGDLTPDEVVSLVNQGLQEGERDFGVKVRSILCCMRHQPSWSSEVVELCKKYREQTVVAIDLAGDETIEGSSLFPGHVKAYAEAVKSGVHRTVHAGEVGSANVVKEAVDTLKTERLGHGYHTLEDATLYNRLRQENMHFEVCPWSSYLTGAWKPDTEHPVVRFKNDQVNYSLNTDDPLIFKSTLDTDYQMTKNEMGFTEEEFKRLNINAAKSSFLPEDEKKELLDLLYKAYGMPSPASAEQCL

Structure (SMILES) | Ki (AMP deaminase 3) [µM] | Ki (Adenosine deaminase) [µM]
O=C(O)CCCCCn1cnc2c1N=CNCC2O (centres undefined) | 4.2 | 
O=C(O)C(CCCCn1cnc2c1NC=NCC2O)(Cc1cccc(C(F)(F)F)c1)C(=O)O (centres undefined) | 0.029 | > 7.5
CC(CCCCn1cnc2c1NC=NCC2O)(C(=O)OCc1ccccc1)C(=O)OCc1ccccc1 (centres undefined) | 5.2 | > 7.5
O=C(O)C(CCCCn1cnc2c1NC=NCC2O)(Cc1ccc(C(F)(F)F)cc1)C(=O)O (centres undefined) | 0.04 | > 7.5
CC(CCCCn1cnc2c1NC=NCC2O)(C(N)=O)C(=O)O (centres undefined) | 7.8 | > 7.5
CC(CCCCn1cnc2c1NC=NCC2O)(C(=O)O)C(=O)O (centres undefined) | 6 | > 7.5
O=C(O)C(CCCCn1cnc2c1NC=NCC2O)C(=O)O (centres undefined) | 5.1 | > 7.5
O=C(O)C(CCCCn1cnc2c1N=CNCC2O)C(=O)NCc1ccc(Cl)cc1 (centres undefined) | 1.3 | > 7.5
CC(CCCCn1cnc2c1NC=NCC2O)(C(=O)O)C(=O)NC1CCCCC1 (centres undefined) | 5.2 | > 7.5
CC(CCCCn1cnc2c1NC=NCC2O)(C(=O)O)C(=O)OCc1ccccc1 (centres undefined) | 0.9 | > 7.5
CCOC(=O)C(C)(CCCCn1cnc2c1NC=NCC2O)C(=O)OCC (centres undefined) | 44.8 | > 500
CC(CCCCn1cnc2c1NC=NCC2O)(Cc1cccc(C(F)(F)F)c1)C(=O)O (centres undefined) | 1.2 | > 7.5

Now from value to molecule:

Ki (AMP deaminase 3) [µM] | Ki (Adenosine deaminase) [µM] | Structure (SMILES)
0.36 | > 7.5 | CCOC(=O)C(CCCCn1cnc2c1N=CNCC2O)(Cc1ccccc1C(F)(F)F)C(=O)OCC (centres undefined)
2.4 | > 7.5 | O=C(O)C(CCCCn1cnc2c1N=CNCC2O)C(=O)NCc1ccccc1 (centres undefined)
0.36 | > 7.5 | O=C(O)C(CCCCn1cnc2c1N=CNCC2O)C(=O)OCc1ccccc1 (centres undefined)
0.041 | > 7.5 | O=C(O)C(CCCCn1cnc2c1NC=NCC2O)(Cc1ccccc1C(F)(F)F)C(=O)O (centres undefined)
0.17 | > 7.5 | O=C(O)C(CCCCn1cnc2c1N=CNCC2O)(Cc1ccccc1)C(=O)O (centres undefined)
2.1 | > 7.5 | CC(CCCCn1cnc2c1N=CNCC2O)(C(=O)O)C(=O)NCCc1ccccc1 (centres undefined)
0.25 | > 7.5 | O=C(OCc1ccccc1)C(CCCCn1cnc2c1N=CNCC2O)(Cc1ccccc1C(F)(F)F)C(=O)OCc1ccccc1 (centres undefined)
2.6 | > 7.5 | CCOC(=O)C(CCCCn1cnc2c1N=CNCC2O)(Cc1ccccc1)C(=O)OCC (centres undefined)
